Measured values as given in US20110105323A1, “Calcium Salts of Phosphorous Acid for Increasing the Effect of Fungicides” (BASF SE, priority 2008, published 2011).
Read-outs that look alike come from different tables or passages of the source.

Key:
[1] = system: Plasmopara viticola; experiment: Example 6: downy mildew on grapevines, greenhouse, protective spray (1 day); format: in vivo
[2] = system: Phytophthora infestans; settings: in vivo
[3] = system: Plasmopara viticola; experiment: Example 9: downy mildew on grapevines, translaminar action; format: in vivo
[4] = system: Plasmopara viticola; experiment: Example 10: downy mildew on grapevines, greenhouse, protective spray (7 days); format: in vivo
[5] = system: Plasmopara viticola; experiment: Example 7: downy mildew on grapevines, greenhouse, as example 6; format: in vivo
[6] = system: Plasmopara viticola; experiment: Example 8: downy mildew on grapevines, bar application pattern; format: in vivo
[7] = system: Phakopsora pachyrhizi; experiment: Example 11: soybean rust on soybeans, greenhouse; format: in vivo
[8] = system: downy mildew on grapevines; experiment: Example 12: downy mildew on grapevines, outdoor test with natural infections; format: in vivo
[9] = system: downy mildew on grapevines; experiment: Example 13: downy mildew on grapevines, outdoor test with natural infections; format: in vivo
[10] = system: downy mildew on grapevines; experiment: Example 14: downy mildew on grapevines, outdoor test with natural infections; format: in vivo
[11] = system: Phytophthora infestans; settings: in vivo; remark: listed apart in the source

**Q.** How did the “Efficacy W” value ([1]; pyraclostrobin 0.5 ppm in spray liquor, Riesling leaves sprayed 1 day before inoculation) turn out when `COC(=O)N(OC)c1ccccc1COc1ccn(-c2ccc(Cl)cc2)n1` [pyraclostrobin] was run?
**A.** 92%

**Q.** Which results are given for `CCCCCCCCc1c(CC)nc2ncnn2c1N` [fungicide A, 5-ethyl-6-octyl-[1,2,4]triazolo[1,5-a]pyrimidin-7-ylamine]?
**A.** Efficacy W [2]: 39%; Efficacy W ([3]; fungicide A 5 ppm, translaminar, applied to upper side of leaf 48 hours prior to inoculation): 1%; Efficacy W ([4]; fungicide A 100 ppm, grapevine leaves sprayed 7 days before inoculation): 85%

**Q.** What does the source list for `[Ca+2].[O-]P([O-])O` [Ca(H2PO3)2, calcium hydrogenphosphite]?
**A.** Efficacy W ([1]; in vivo): 3%; Efficacy W ([5]; in vivo): 3%; Efficacy W ([6]; in vivo): 0%; Efficacy W ([3]; in vivo): 0%; Efficacy W ([4]; in vivo): 9%; Efficacy W ([7]; in vivo): 48%; Efficacy W ([8]; in vivo): 18%; Efficacy W ([9]; in vivo): 21%; Efficacy W ([10]; in vivo): 24%

**Q.** For `N#Cc1sc2c(=O)c3ccccc3c(=O)c=2sc1C#N` [dithianon], which “Efficacy W” value [11] is on record?
**A.** 31%

**Q.** What about the “Efficacy W” value ([5]; dithianon 10 ppm in spray liquor, grapevine leaves sprayed 1 day before inoculation) of the same molecule?
**A.** 62%

**Q.** And the “Efficacy W” value ([6]; dithianon 10 ppm, bar application on lower half of upper leaf side 1 day before inoculation, scored on apical half of leaf underside)?
**A.** 6%

**Q.** What about the “Efficacy W” value ([8]; dithianon 300 ppm, outdoors, natural infections, spray interval 14-16 days, scored 1 day after the 6th application) of the same molecule?
**A.** 85%

**Q.** What about the “Efficacy W” value ([9]; dithianon 400 ppm, outdoors, natural infections, 7 application dates, spray interval 14-16 days) of the same molecule?
**A.** 48%

**Q.** And the “Efficacy W” value ([10]; dithianon 300 ppm, outdoors, natural infections, spray interval 9-11 days, scored 4 days after the 8th application)?
**A.** 56%

**Q.** With `O=C(Nc1ccccc1-c1ccc(Cl)cc1)c1cccnc1Cl` [boscalid] as the molecule, how does the “Efficacy W” value ([7]; boscalid 20 ppm, soybean 'Monsoy' leaves sprayed 2 days before inoculation, scored after 10-12 days) read?
**A.** 11%
